Earlier results as cited in patent publication US10328101B2, “Inactivation of papillomavirus” (priority 2001, dated 2019).

Test system: bovine papillomavirus
Conditions: iodine in the form of povidone-iodine; low concentrations (title of reference)

Substance: povidone-iodine
- treating viruses including bovine papillomavirus: effective
